Several values for one entry are separate records, joined by “and”; a condition that tells them apart may be missing. Equal entries are not always repeated.
Test: mn = molality of the nth substance listed, in mol/kg
Conditions: 101 kPa, Liquid; for speed of sound: Sing-around technique in a fixed-path interferometer; for mass density: Vibrating tube method; for viscosity: Capillary tube (Ostwald / Ubbelohde) method

O=C([O-])CC(O)(CC(=O)[O-])C(=O)[O-].[K+].[K+].[K+] [potassium citrate] + O
Conditions	mass density [kg/m3]	speed of sound	viscosity
293.15 K, m1 = 0.0472	1007.81	1492.8 m/s	–
293.15 K, m1 = 0.0566	1009.7	1494.6 m/s	–
293.15 K, m1 = 0.066	1011.58	1496.5 m/s	–
293.15 K, m1 = 0.0754	1013.45	1498.3 m/s	–
293.15 K, m1 = 0.0849	1015.34	1500.2 m/s	–
293.15 K, m1 = 0.0943	1017.2	1502.1 m/s	–
293.15 K, m1 = 0.2984	1055.65	1540.4 m/s	–
293.15 K, m1 = 0.3971	1073.05	1558.2 m/s	–
293.15 K, m1 = 0.4955	1089.85	1576 m/s	–
293.15 K, m1 = 0.5936	1106.03	1593.3 m/s	–
293.15 K, m1 = 0.7877	1136.49	1626.4 m/s	–
293.15 K, m1 = 0.9823	1165.2	1658.6 m/s	–
293.15 K, m1 = 1.175	1191.92	1689.6 m/s	–
293.15 K, m1 = 1.366	1216.69	1718.7 m/s	–
293.15 K, m1 = 1.555	1239.9	1746.2 m/s	–
293.15 K, m1 = 1.837	1272.28	1784.9 m/s	–
298.15 K, m1 = 0.0472	1006.59	1506.6 m/s	1.027 mPa·s and 0.911 mPa·s
298.15 K, m1 = 0.0566	1008.46	1508.5 m/s	0.918 mPa·s and 1.027 mPa·s
298.15 K, m1 = 0.066	1010.33	1510.3 m/s	0.924 mPa·s and 1.029 mPa·s
298.15 K, m1 = 0.0754	1012.19	1512 m/s	0.93 mPa·s and 1.033 mPa·s
298.15 K, m1 = 0.0849	1014.06	1513.9 m/s	0.935 mPa·s and 1.037 mPa·s
298.15 K, m1 = 0.0943	1015.89	1515.7 m/s	0.942 mPa·s and 1.041 mPa·s
298.15 K, m1 = 0.2984	1054.02	1552.8 m/s	1.065 mPa·s and 1.132 mPa·s
298.15 K, m1 = 0.3971	1071.35	1570.1 m/s	1.13 mPa·s and 1.183 mPa·s
298.15 K, m1 = 0.4955	1088.07	1587 m/s	1.2 mPa·s and 1.238 mPa·s
298.15 K, m1 = 0.5936	1104.21	1603.8 m/s	1.274 mPa·s and 1.295 mPa·s
298.15 K, m1 = 0.7877	1134.65	1636.2 m/s	1.423 mPa·s and 1.441 mPa·s
298.15 K, m1 = 0.9823	1163.14	1667.5 m/s	1.575 mPa·s and 1.624 mPa·s
298.15 K, m1 = 1.175	1189.77	–	1.733 mPa·s and 1.837 mPa·s
298.15 K, m1 = 1.366	1214.46	–	1.92 mPa·s and 2.072 mPa·s
298.15 K, m1 = 1.555	1237.68	–	2.121 mPa·s and 2.334 mPa·s
298.15 K, m1 = 1.837	1269.96	–	2.476 mPa·s and 2.788 mPa·s
303.15 K, m1 = 0.0472	1005.15	1518.1 m/s	0.821 mPa·s
303.15 K, m1 = 0.0566	1007.02	1519.9 m/s	0.822 mPa·s
303.15 K, m1 = 0.066	1008.87	1521.7 m/s	0.825 mPa·s
303.15 K, m1 = 0.0754	1010.72	1523.5 m/s	0.832 mPa·s
303.15 K, m1 = 0.0849	1012.58	1525.3 m/s	0.837 mPa·s
303.15 K, m1 = 0.0943	1014.42	1527 m/s	0.843 mPa·s
303.15 K, m1 = 0.2984	1052.39	1563.6 m/s	0.956 mPa·s
303.15 K, m1 = 0.3971	1069.63	1580.3 m/s	1.016 mPa·s
303.15 K, m1 = 0.4955	1086.25	1596.8 m/s	1.08 mPa·s
303.15 K, m1 = 0.5936	1102.31	1613.3 m/s	1.145 mPa·s
303.15 K, m1 = 0.7877	1132.65	1644.5 m/s	1.295 mPa·s
303.15 K, m1 = 0.9823	1161.02	1674.8 m/s	1.458 mPa·s
303.15 K, m1 = 1.175	1187.66	1697.5 m/s	1.647 mPa·s
303.15 K, m1 = 1.366	1212.46	1725.7 m/s	1.853 mPa·s
303.15 K, m1 = 1.555	1235.64	1752.6 m/s	2.085 mPa·s
303.15 K, m1 = 1.837	1267.94	1790.3 m/s	2.484 mPa·s
308.15 K, m1 = 0.0472	1003.5	1529 m/s	0.739 mPa·s
308.15 K, m1 = 0.0566	1005.36	1530.8 m/s	0.741 mPa·s
308.15 K, m1 = 0.066	1007.2	1532.5 m/s	0.744 mPa·s
308.15 K, m1 = 0.0754	1009.04	1534.2 m/s	0.749 mPa·s
308.15 K, m1 = 0.0849	1010.89	1535.9 m/s	0.754 mPa·s
308.15 K, m1 = 0.0943	1012.72	1537.6 m/s	0.76 mPa·s
308.15 K, m1 = 0.2984	1050.43	1572.8 m/s	0.861 mPa·s
308.15 K, m1 = 0.3971	1067.62	1589 m/s	0.916 mPa·s
308.15 K, m1 = 0.4955	1084.2	1605.1 m/s	0.975 mPa·s
308.15 K, m1 = 0.5936	1100.17	1620.8 m/s	1.036 mPa·s
308.15 K, m1 = 0.7877	1130.41	1651.3 m/s	1.168 mPa·s
308.15 K, m1 = 0.9823	1158.81	1681 m/s	1.316 mPa·s
308.15 K, m1 = 1.175	1185.33	1704 m/s	1.486 mPa·s
308.15 K, m1 = 1.366	1210.05	1731.7 m/s	1.671 mPa·s
308.15 K, m1 = 1.555	1233.31	1757.9 m/s	1.875 mPa·s
308.15 K, m1 = 1.837	1265.24	1794.7 m/s	2.231 mPa·s
313.15 K, m1 = 0.0472	1001.66	1538.1 m/s	0.665 mPa·s
313.15 K, m1 = 0.0566	1003.51	1539.8 m/s	0.668 mPa·s
313.15 K, m1 = 0.066	1005.35	1541.4 m/s	0.672 mPa·s
313.15 K, m1 = 0.0754	1007.18	1543 m/s	0.675 mPa·s
313.15 K, m1 = 0.0849	1009.03	1544.7 m/s	0.68 mPa·s
313.15 K, m1 = 0.0943	1010.86	1546.4 m/s	0.684 mPa·s
313.15 K, m1 = 0.2984	1048.42	1580.5 m/s	0.783 mPa·s
313.15 K, m1 = 0.3971	1065.62	1596.5 m/s	0.832 mPa·s
313.15 K, m1 = 0.4955	1082.12	1612 m/s	0.887 mPa·s
313.15 K, m1 = 0.5936	1098.03	1627.4 m/s	0.94 mPa·s
313.15 K, m1 = 0.7877	1128.2	1657.5 m/s	1.063 mPa·s
313.15 K, m1 = 0.9823	1156.41	1686.1 m/s	1.196 mPa·s
313.15 K, m1 = 1.175	1182.97	1709.4 m/s and 1714 m/s	1.351 mPa·s
313.15 K, m1 = 1.366	1207.69	1736.3 m/s and 1740.3 m/s	1.516 mPa·s
313.15 K, m1 = 1.555	1230.6	1762.1 m/s and 1765.2 m/s	1.697 mPa·s
313.15 K, m1 = 1.837	1262.83	1797.6 m/s and 1800.3 m/s	2.013 mPa·s
